Experiments:
[1] = test system: MDA-MB-231 human breast cancer xenograft; assay: MDA-MB-231 xenograft, intraperitoneal 80 mg/kg (Example 82); type: in vivo, mice; conditions: 80 mg/kg intraperitoneally, 5 days on/2 off, four cycles, DMA/PEG 400
Description: Athymic female nude mice (CRL:NU/NU-nuBR) were injected subcutaneously in the flank with MDA-MB-231 human breast cancer cells (8×10^6 cells/mouse). Prior to injection, MDA-MB-231 cells were cultured in DMEM (Invitrogen #11965-092) supplemented with 10% (v/v) heat inactivated fetal bovine serum (FBS), 1% Hepes buffer solution (Invitrogen #15630-080) and 1% Penicillin/Streptomycin (Invitrogen #15140-122) at 37° C. in 5% CO2. Tumors were allowed to grow to approximately 50 mm^3 in size. Animals were randomized into three groups of eight animals per group. At day four post injection, mice with established tumors were treated intraperitoneally with (±)-Cis-3-(5,6-dihydro-4H-pyrrolo[3,2,1-ij]quinolin-1yl)-4(1H-indol-3-yl)pyrrolidine-2,5-dione (80 mg/kg), (±)-Trans-3-(5,6-dihydro-4H-pyrrolo[3,2,1-ij]quinolin-1-yl)-4(1H-indol-3-yl)pyrrolidine-2,5-dione (80 mg/kg) administered in DMA/PEG 400 (1:4 v/v) as the vehicle at 50 mg/ml, or vehicle control intraperitoneally. […] Tumor size was evaluated periodically during the study. For each subject, tumor volume was calculated using the formula (L×W^2)/2 where L and W were the length and width of the tumor, respectively. The arithmetic mean tumor volume was calculated for each treatment group+/−standard error of the mean (SEM). […]

[2] = test system: NCI-H446; assay: Cell viability MTS assay; type: cell-based, human; conditions: Homo sapiens, NCI-H446, 72 hours with compound
Summary of the method: (§1)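 Tetrazolium (MTS) viability read after 72 hours of compound treatment in DMEM with 15% FBS, 10 mM L-glutamine and 10 mM Hepes pH 7.5. IC50 derived by non-linear regression relative to 0.33% DMSO controls.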

[3] = test system: NCI-H69; assay: Cell viability MTS assay; type: cell-based, human; conditions: Homo sapiens, NCI-H69, 72 hours with compound
Summary of the method: as §1

[4] = test system: NCI-H82; assay: Cell viability MTS assay; type: cell-based, human; conditions: Homo sapiens, NCI-H82, 72 hours with compound
Summary of the method: as §1

[5] = test system: ERK1/2; assay: ERK1/2 phosphorylation, Western blot (Example 80); type: cell-based, human; conditions: MDA-MB-231 cells, 100 ng/ml HGF/SF 10 minutes
Description: MDA-MB-231 cells were serum-deprived overnight (16 hours) in the absence or in the presence of the indicated concentrations of the separate enantiomers (+)-trans-3-(5,6-dihydro-4H-pyrrolo[3,2,1-ij]quinolin-1-yl)-4(1H-indol-3-yl)pyrrolidine-2,5-dione and (−)-trans-3-(5,6-dihydro-4H-pyrrolo[3,2,1-ij]quinolin-1-yl)-4(1H-indol-3-yl)pyrrolidine-2,5-dione. Cells were treated with 100 ng/ml recombinant human Hepatocyte Growth Factor/Scatter Factor (HGF/SF) (R&D Systems #294-HG) for 10 minutes. Whole cell extracts were prepared in lysis buffer (20 mM Trwas-HC1 pH 7.5, 150 mM NaCl, 1 mM Na2EDTA, 1 mM EGTA, 1% Triton X-100, 2.5 mM sodium pyrophosphate, 1 mM beta-glycerophosphate, 1 mM Na3VO4, 1 μg/ml leupeptin, 1 mM phenylmethylsulfonyl fluoride) and sonicated. Protein concentration was measured by Bradford assay using the BioRad reagent (BioRad, Hercules, Calif.), according to the manufacturer's directions. Samples (50 μg of protein) were resolved by 8% SDS-PAGE under reducing conditions, and transferred onto a PVDF membrane (BioRad). […] Proteins were detected by incubation overnight at 4° C. in TBS-T with 5% milk and either a polyclonal antibody against phosphorylated c-Met (#3121), phosphorylated Erk1/2 (#9101), total Erk1/2 protein (#9102) (Cell Signaling Technology); or a monoclonal antibody against […] (A-5441) (Sigma), which was used as a control for total protein loading. […]

| Compound | reduction of mean tumor volume compared to vehicle treated control [1] | IC50 [2] | IC50 [3] | IC50 [4] | phosphorylation of ERK1/2 [5] |
| --- | --- | --- | --- | --- | --- |
| O=C1NC(=O)[C@@H](c2cn3c4c(cccc24)CCC3)[C@@H]1c1c[nH]c2ccccc12 (racemic) [(±)-Trans-3-(5,6-dihydro-4H-pyrrolo[3,2,1-ij]quinolin-1-yl)-4(1H-indol-3-yl)pyrrolidine-2,5-dione] | 69.4% | – | – | – | – |
| O=C1NC(=O)C(c2cn3c4c(cccc24)CCC3)C1c1c[nH]c2ccccc12 (single isomer, unassigned; (-)) | – | 0.581 µM | 1.04 µM | 0.828 µM | decreases the phosphorylation of ERK1/2 |

Reference: patent US7713969B2, “Compositions and methods for treatment of cancer” (ArQule, Inc., priority 2005, dated 2010)
